From ChEMBL document CHEMBL1201862, “PubChem BioAssay data set” (2004)
Calls of active or inactive are those of the source.

Columns and labels:
Aminopeptidase N = biological target: T1, Aminopeptidase N (Plasmodium falciparum FcB1/Columbia, UniProt O96935); assay: P. falciparum M1AAP inhibitors, biochemical, fluorogenic H-Leu-NHMec substrate, 1536-well (AID 1445); parameters: species or system Plasmodium falciparum 3D7, 3D7
T1 sequence (O96935 whole entry): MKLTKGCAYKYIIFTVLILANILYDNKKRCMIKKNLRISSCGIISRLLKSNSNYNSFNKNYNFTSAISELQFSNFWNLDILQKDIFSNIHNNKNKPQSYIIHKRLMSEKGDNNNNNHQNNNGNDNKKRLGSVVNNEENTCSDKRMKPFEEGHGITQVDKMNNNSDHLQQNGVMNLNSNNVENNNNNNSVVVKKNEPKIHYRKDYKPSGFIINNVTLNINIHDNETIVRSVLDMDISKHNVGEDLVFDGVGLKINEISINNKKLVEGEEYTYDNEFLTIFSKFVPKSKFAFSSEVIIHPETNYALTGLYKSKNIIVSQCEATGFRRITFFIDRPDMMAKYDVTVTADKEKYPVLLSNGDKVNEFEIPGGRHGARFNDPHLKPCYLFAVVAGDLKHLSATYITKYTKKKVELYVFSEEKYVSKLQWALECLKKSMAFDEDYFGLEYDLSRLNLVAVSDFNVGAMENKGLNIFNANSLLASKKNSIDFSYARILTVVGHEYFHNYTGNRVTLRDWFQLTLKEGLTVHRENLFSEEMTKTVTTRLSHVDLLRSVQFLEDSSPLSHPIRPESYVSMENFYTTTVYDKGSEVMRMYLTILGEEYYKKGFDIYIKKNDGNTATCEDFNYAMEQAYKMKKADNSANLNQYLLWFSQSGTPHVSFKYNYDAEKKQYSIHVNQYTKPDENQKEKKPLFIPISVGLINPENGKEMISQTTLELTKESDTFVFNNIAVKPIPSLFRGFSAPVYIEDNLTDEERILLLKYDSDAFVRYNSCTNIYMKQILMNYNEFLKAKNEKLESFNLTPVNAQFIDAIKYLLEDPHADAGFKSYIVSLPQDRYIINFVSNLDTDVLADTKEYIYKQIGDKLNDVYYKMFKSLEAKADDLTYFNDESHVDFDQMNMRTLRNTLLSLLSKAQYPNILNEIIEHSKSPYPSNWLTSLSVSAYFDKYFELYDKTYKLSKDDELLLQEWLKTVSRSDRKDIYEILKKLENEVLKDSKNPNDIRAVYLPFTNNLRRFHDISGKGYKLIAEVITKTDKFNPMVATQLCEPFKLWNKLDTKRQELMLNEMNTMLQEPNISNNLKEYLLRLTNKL

[1] = biological target: Bifunctional protein GlmU (Mycobacterium tuberculosis, UniProt P9WMN3); assay: Inhibitors of Mycobacterial Glucosamine-1-phosphate acetyl transferase (GlmU). Secondary screen.; parameters: species or system Mycobacterium tuberculosis H37Rv
[2] = biological target: Induced myeloid leukemia cell differentiation protein Mcl-1 (Homo sapiens, UniProt Q07820); assay type: functional
[3] = biological target: DNA (cytosine-5)-methyltransferase 1 (Homo sapiens, UniProt P26358); assay: DNMT1 methyltransferase inhibitors, confirmation, biochemical, fluorescent molecular beacon (AID 602386); assay type: functional
[4] = biological target: 26S proteasome non-ATPase regulatory subunit 14 (Homo sapiens, UniProt O00487); assay: inhibition of proteasome subunit RPN11 – biochemical, fluorescence polarization, uHTS hits, confirmation (AID 602368); assay type: functional
[5] = biological target: 72 kDa type IV collagenase (Homo sapiens, UniProt P08253); assay: Dose Response validation of uHTS RPN11 inhibitor hits using a MMP-2 Fluorescence assay.; assay type: functional
Prothrombin = Prothrombin (Bos taurus, UniProt P00735); assay: thrombin inhibition, dose response, biochemical, fluorescence polarization, uHTS hits (AID 602369); assay type: functional
[6] = biological target: T2, Rac GTPase-activating protein 1 (Homo sapiens, UniProt Q9H0H5); assay: MgcRacGAP GTPase-activating activity inhibitors, confirmation, biochemical, ADP Hunter fluorescence, primary and confirmatory (AID 624330); assay type: functional
T2 sequence (Q9H0H5 whole entry): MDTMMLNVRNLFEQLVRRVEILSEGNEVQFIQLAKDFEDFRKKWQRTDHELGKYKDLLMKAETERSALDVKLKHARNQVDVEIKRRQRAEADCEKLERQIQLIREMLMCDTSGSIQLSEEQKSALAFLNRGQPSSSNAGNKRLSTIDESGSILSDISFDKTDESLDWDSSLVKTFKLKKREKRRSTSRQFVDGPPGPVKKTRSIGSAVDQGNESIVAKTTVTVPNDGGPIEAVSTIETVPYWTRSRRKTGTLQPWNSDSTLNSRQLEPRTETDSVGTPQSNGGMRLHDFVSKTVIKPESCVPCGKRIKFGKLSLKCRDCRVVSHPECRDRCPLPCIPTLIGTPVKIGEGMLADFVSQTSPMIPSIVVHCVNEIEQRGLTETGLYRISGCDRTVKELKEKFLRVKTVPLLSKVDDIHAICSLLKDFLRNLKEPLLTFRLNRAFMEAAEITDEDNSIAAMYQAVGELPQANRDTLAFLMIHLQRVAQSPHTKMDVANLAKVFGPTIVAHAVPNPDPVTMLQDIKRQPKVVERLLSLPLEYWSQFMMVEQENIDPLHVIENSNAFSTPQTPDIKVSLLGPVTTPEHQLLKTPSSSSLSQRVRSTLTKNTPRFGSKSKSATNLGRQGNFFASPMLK

[7] = biological target: T3, Histone-lysine N-methyltransferase NSD2 (Homo sapiens, UniProt O96028); assay type: biochemical
T3 sequence (O96028 whole entry): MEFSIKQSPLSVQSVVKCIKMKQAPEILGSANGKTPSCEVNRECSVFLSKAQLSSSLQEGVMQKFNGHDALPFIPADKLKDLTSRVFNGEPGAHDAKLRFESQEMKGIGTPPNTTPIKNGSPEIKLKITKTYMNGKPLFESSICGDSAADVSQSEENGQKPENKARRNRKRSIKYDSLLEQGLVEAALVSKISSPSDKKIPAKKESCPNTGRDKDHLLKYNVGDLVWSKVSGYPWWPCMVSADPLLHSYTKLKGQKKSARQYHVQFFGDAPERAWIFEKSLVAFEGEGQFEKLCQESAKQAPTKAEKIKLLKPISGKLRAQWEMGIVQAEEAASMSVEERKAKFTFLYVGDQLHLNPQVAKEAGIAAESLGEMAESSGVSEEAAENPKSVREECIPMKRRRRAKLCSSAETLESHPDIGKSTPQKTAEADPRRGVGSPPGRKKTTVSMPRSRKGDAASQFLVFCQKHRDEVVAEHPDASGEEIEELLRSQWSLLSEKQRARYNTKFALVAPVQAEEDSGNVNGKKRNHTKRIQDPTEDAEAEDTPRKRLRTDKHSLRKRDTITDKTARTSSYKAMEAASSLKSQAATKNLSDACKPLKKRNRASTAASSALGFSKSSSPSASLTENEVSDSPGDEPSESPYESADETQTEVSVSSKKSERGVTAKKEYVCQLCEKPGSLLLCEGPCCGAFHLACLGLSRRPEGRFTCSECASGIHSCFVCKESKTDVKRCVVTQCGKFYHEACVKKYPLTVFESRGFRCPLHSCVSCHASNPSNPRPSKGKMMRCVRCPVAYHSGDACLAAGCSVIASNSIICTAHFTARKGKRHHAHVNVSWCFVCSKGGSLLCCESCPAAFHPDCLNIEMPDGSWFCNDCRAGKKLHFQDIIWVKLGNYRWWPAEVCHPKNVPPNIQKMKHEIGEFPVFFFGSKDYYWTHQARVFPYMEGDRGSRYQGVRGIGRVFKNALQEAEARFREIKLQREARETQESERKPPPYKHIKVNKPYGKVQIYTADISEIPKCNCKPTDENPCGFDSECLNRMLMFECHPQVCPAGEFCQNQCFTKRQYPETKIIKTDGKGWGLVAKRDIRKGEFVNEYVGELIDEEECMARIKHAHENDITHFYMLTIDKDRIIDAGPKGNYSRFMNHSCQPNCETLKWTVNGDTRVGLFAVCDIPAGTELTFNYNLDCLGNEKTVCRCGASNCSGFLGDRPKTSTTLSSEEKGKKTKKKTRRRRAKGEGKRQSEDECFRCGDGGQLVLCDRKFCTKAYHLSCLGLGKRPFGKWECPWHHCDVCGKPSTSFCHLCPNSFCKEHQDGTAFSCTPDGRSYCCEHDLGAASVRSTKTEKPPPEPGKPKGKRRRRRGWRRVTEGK

[8] = growth suppression of PTEN-null colon cells, dose response, cell-based, HCT116 PTEN knockout (AID 1047); assay type: functional;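 further: HCT116 colon tumor cells with PTEN knocked out; cells exposed to compound for 60 hours before readout; potency for loss of cell viability measured by luminescence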
[9] = growth suppression of beta-catenin-knockout colon cells, dose response, cell-based, HCT116, human colon tumor (AID 1045); assay type: functional;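 further: HCT116 colon tumor cells with beta catenin knocked out; cells exposed to compound for 60 hours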
[10] = enhancers of respiration in Yfh1-depleted yeast, dose response, Friedreich's ataxia, plus single-dose screen (AID 1465); assay type: functional;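 further: yeast depleted of Yfh1p frataxin homolog grown on glycerol needing respiration; WST-1 tetrazolium dye reduction as measure of cellular dehydrogenase metabolic activity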
Nonstructural protein 1 = Nonstructural protein 1 (Influenza A virus, UniProt Q194T2); assay type: functional, Influenza A virus (A/California/07/2009(H1N1))
[11] = HeLa cell cytotoxicity, dose response, cytotoxicity control for MgcRacGAP inhibitor project (AID 624300); assay type: functional
[12] = THP-1 cell cytotoxicity, dose response, cytotoxicity control for Vif-APOBEC3G degradation inhibitor project, THP-1 cells (AID 1117359); assay type: functional; details: Human immunodeficiency virus 1, THP-1
[13] = biological target: Glutathione-S-transferase (Schistosoma japonicum, UniProt Q26513); assay: biotin-GST/anti-GST TR-FRET signal inhibitors, dose response, artefact control for Vif-APOBEC3G degradation inhibitor project, biochemical (AID 1117362); assay type: functional
[14] = biological target: Signal transducer and activator of transcription 1-alpha/beta (Homo sapiens, UniProt P42224); assay: STAT1 signalling inhibitors, dose response, cell-based, NIH 3T3, luciferase reporter (AID 1396); assay type: functional
Signal transducer and activator of transcription 1-alpha/beta, sequence (P42224 whole entry): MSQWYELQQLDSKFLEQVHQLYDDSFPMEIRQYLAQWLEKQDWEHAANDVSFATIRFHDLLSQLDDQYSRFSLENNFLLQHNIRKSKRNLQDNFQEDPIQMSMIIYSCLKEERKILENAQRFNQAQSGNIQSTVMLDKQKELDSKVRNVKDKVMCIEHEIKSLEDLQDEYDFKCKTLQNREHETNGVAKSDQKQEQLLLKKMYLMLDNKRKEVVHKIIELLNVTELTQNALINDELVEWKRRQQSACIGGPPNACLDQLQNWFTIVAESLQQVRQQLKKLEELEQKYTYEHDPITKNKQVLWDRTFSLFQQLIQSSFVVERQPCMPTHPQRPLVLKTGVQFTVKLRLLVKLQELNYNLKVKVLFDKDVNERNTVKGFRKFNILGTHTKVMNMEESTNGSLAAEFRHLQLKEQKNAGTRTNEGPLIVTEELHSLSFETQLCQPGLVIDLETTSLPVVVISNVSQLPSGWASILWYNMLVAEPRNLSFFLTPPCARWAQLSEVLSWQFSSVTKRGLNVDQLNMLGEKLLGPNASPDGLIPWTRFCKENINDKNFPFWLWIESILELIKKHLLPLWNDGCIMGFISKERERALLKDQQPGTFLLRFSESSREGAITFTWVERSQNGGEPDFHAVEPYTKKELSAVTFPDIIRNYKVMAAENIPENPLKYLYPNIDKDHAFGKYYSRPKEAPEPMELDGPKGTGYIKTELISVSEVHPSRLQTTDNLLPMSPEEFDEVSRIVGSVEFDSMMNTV

72 kDa type IV collagenase, sequence (P08253 whole entry): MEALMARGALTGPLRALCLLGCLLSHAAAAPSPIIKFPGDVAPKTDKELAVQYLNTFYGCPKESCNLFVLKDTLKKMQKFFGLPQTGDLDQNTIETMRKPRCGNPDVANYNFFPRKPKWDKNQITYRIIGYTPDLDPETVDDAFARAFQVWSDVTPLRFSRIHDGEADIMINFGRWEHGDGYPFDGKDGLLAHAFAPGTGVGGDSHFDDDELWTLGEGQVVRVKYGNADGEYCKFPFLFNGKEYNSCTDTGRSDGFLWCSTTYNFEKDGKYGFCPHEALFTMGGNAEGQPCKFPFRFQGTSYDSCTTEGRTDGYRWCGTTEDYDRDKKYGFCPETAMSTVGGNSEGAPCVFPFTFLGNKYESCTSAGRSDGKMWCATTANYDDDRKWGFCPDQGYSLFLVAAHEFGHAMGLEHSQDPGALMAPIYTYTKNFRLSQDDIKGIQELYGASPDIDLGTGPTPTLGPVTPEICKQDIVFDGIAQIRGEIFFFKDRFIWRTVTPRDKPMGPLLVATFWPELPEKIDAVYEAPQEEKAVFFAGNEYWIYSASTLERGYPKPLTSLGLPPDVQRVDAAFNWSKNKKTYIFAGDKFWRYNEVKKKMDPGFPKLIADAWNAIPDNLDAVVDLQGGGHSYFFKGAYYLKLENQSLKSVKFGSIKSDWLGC
Bifunctional protein GlmU, sequence (P9WMN3 whole entry): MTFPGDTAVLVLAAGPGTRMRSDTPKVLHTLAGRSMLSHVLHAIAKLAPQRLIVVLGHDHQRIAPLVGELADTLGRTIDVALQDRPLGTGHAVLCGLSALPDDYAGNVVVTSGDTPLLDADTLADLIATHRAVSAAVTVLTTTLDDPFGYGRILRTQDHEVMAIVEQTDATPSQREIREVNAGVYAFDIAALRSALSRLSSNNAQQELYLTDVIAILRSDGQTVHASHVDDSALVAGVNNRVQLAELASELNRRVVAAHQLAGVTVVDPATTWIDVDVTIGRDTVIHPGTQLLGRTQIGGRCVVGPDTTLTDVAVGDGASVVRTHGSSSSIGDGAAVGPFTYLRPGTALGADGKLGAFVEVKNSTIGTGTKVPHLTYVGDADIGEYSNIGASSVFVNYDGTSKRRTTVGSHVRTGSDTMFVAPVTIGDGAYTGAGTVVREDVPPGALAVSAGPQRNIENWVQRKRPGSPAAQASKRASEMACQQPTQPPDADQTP
DNA (cytosine-5)-methyltransferase 1, sequence (P26358 whole entry): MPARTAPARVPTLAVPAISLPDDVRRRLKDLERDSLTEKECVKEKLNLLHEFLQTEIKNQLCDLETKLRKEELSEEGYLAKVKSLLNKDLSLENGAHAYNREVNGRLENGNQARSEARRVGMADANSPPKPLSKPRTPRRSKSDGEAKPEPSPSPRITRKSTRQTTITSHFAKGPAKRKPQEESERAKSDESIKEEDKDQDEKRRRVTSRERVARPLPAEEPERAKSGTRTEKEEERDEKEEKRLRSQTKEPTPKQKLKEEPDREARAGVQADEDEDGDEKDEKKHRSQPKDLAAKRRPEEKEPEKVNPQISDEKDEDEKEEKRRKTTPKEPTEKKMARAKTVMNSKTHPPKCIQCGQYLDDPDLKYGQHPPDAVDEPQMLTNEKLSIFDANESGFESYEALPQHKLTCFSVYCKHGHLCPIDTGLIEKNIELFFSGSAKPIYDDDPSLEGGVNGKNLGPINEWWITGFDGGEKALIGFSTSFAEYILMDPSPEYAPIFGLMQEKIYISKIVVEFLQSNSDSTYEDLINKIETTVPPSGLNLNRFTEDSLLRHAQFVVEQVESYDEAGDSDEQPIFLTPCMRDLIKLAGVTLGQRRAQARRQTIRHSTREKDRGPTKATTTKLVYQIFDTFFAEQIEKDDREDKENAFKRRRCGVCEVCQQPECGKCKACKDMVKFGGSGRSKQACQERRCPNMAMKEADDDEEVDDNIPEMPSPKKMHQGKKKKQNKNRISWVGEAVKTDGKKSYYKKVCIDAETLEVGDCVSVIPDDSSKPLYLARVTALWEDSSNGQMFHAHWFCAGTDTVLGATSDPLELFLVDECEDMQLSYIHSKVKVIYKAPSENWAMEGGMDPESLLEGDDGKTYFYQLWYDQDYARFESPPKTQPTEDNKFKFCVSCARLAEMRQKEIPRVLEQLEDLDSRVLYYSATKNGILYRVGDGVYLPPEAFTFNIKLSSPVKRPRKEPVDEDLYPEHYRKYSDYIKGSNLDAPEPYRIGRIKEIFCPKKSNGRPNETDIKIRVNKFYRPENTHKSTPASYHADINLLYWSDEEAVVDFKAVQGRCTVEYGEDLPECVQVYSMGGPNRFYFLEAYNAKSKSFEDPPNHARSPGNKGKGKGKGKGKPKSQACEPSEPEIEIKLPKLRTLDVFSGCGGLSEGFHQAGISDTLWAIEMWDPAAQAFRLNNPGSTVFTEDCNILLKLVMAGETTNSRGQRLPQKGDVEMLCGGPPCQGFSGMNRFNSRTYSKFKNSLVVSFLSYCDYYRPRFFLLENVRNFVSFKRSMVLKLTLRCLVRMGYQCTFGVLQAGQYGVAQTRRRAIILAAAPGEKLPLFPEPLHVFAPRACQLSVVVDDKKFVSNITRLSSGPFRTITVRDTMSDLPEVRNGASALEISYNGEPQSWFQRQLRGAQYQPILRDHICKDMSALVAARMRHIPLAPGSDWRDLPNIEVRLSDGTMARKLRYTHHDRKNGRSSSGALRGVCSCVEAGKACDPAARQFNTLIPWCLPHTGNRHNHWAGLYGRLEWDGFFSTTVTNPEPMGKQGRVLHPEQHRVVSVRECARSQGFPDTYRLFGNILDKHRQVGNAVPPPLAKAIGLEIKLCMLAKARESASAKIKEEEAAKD
26S proteasome non-ATPase regulatory subunit 14, sequence (O00487 whole entry): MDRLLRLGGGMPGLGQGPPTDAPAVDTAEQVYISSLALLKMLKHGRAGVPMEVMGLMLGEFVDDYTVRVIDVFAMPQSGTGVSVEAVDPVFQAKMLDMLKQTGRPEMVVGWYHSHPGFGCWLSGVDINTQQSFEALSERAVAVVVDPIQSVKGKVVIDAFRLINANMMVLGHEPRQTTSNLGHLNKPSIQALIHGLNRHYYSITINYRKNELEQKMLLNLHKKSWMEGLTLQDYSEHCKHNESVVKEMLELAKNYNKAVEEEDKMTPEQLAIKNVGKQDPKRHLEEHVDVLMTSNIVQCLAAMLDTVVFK
Nonstructural protein 1, sequence (Q194T2 whole entry): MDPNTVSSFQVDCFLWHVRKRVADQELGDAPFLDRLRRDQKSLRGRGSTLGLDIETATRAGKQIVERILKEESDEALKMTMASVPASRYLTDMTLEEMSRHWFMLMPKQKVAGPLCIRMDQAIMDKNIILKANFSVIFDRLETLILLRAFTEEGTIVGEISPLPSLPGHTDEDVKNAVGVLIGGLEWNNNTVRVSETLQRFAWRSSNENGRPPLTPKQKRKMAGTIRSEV
Induced myeloid leukemia cell differentiation protein Mcl-1, sequence (Q07820 whole entry): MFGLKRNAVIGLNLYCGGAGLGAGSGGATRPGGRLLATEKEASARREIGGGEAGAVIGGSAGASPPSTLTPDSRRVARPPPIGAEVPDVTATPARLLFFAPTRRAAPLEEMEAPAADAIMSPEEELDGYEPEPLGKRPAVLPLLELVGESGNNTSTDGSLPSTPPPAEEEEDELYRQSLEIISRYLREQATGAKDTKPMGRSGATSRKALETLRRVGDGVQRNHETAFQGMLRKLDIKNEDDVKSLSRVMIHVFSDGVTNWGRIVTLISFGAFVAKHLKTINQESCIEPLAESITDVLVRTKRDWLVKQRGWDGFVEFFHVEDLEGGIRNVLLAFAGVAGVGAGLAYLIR
Glutathione-S-transferase, sequence (Q26513 whole entry): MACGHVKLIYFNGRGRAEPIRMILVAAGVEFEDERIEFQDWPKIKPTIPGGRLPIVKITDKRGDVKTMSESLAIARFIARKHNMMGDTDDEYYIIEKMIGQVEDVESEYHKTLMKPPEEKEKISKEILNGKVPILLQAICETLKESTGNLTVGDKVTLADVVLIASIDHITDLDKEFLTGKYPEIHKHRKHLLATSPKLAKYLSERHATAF

CCS(=O)(=O)C1=NN2C(=N)/C(=C\c3ccc(SCc4ccco4)o3)C(=O)N=C2S1
active: IC50 (Aminopeptidase N) 24.2 µM | IC50 [1] 49.4 µM | IC50 [2] 3.96 µM | IC50 [3] 5.71 µM | IC50 [4] 12 µM | IC50 [5] 4.49 µM | IC50 (Prothrombin) 28.5 µM | IC50 [6] 132 µM | AC50 [7] 7.62 µM

CN(C)c1ccc(/N=C/C=C2/N(C)c3ccccc3C2(C)C)cc1
active: EC50 [8] 39 µM | EC50 [9] 39 µM | EC50 [10] > 100 µM | IC50 (Nonstructural protein 1) 16.1 µM | CC50 [11] 100 µM | IC50 [6] 20.6 µM | CC50 [12] 17.5 µM | IC50 [13] 44.9 µM

CCOC(=O)C(/C=N/c1cc(C)nn1-c1ccccc1)=C(/O)OCC
active: IC50 [14] 6.37 µM
